As a reminder, the melting point is the temperature, or range, at which the solid turns liquid.

Some results are limits rather than exact numbers.

The compound `Clc1ccc2c(c1)CCn1ccnc1C2=C1CCNCC1` showed a melting point of 197 °C.
`Clc1ccc2c(c1)C(c1ccccc1)=NCc1nccn1-2` had a melting point of 146 to 148 °C.
`CCC(=O)N1Cc2cn(C)nc2-c2cc(Cl)ccc21` had a melting point of 137 to 138 °C.
As to `COc1cccc2c1OC(CN1CC=C(c3c[nH]c4ccc(C#N)cc34)CC1)CO2` (stereo not drawn), the melting point lay within 235 to 238 °C.
As for `O=C1C(CCC(O)c2ccc(F)cc2)C(c2ccc(-c3ccc(C4OC(CO)C(O)C(O)C4O)cc3)cc2O)N1c1ccccc1` (stereo not drawn), the melting point was 152 to 160 °C.
With `OC1CCN(c2ccncc2)CC1` the figure was 155 to 156 °C; with `CCCc1cc(-c2noc3cc(O)ccc23)ccc1O`, 227 to 229 °C.
For `Cc1nnc(-c2ccc3occ(-c4ccc(C(=O)O)cc4)c3c2)o1` the value was above 300 °C.
With `Cc1cc2c(O)nc(O)nc2s1` the figure was above 300 °C; with `COC(=O)c1ccc(N2C(=O)CCC2CN=[N+]=[N-])c([N+](=O)[O-])c1` (stereo not drawn), 68 to 70 °C.
Turning to `CCOC(=O)C1=C(Cl)C(OCC)=NS1(=O)=O`, the melting point fell in the range of 134 to 136 °C.
For `CCC(=O)Nc1ccc(C(=O)[C@H]2C[C@H]2C(=O)O)cc1` (relative stereo) the value was 182 to 183 °C.
In turn, `COC(=O)C1CC(c2ccc(OC)c(OC)c2)=NO1` (stereo not drawn) gave a melting point of 106 to 108 °C.
For `CC(C)(C)OC(=O)CN1C(=O)[C@@H](N[C@@H](CCC2CCCCC2)C(=O)O)COc2ccccc21` the value was 180 to 183 °C; for `CCOC(=O)c1cn(-c2nc(NC(C)(C)C)c(F)cc2F)c2c(Cl)c(F)c(F)cc2c1=O`, 203 to 205 °C; for `O=c1ncc(Br)cn1CSc1ccc(F)cc1`, 206 °C.
Take `CC(C)N(CCN1C(=O)/C(=N/NC(N)=O)c2cc(Cl)ccc21)C(C)C`: the melting point fell in the range of 154 to 155 °C.
For `COc1ccc(-c2cc3cc(F)c(F)cc3[nH]2)cc1NC(=S)Nc1ccc(C(=O)O)cc1` the value was 201 to 203 °C; for `Cc1ccnc(N2CCN(C3Sc4ccccc4NC3=O)CC2)c1` (stereo not drawn), 245 °C.
For `CC(C)(C)OC(=O)N1CCn2c(-c3ccccc3)cc(C#N)c2C1` the value was 124 to 126 °C.
For `Cc1c2c(nc3ccccc13)C(=Cc1ccc(Cl)c(Cl)c1)CC2` the value was 187 to 188 °C; for `N#CC1(C#N)C2CCC(C2)C1(Cl)Cl` (stereo not drawn), 148 °C.
`COc1nc(-n2ncc(C#N)c2N)c(Cl)cc1C(F)(F)F` gave a melting point of 135 to 139 °C.
With `CN(C)c1ccc(C=C2SC(=S)N(CC(=O)O)C2=O)cc1` the figure was 260 to 264 °C.
For `CCN1C(=O)C(C(=O)Nc2cccc(C(=O)Nc3ccc(I)cc3)c2)c2cc(C(C)=O)ccc21` (stereo not drawn) the value was 205 to 210 °C; for `O=C1c2ccccc2C(=O)N1CC(=O)N1c2ccccc2N(Cc2ccccc2)C(=O)C(Cc2ccccc2)C1C(F)(F)F` (stereo not drawn), 262 to 263 °C.
With `COc1ccccc1[C@@]1(O)[C@H](O)CC(c2ccccc2)(c2ccccc2)[C@@H]2CN(C(=O)Cc3ccccc3N3CCCC3)C[C@@H]21` (racemic) the figure was 236 °C.
For `CC(O)c1cc(N)ccc1N` (stereo not drawn), the melting point turned out to be 124 °C.
With `CCCc1nc(C(C)=O)c(C(=O)OCC)[nH]1` the figure was 76 to 78 °C.
For `COC(=O)C1(C(=O)OC)CN(C(=O)OC(C)(C)C)c2cc([N+](=O)[O-])c3ccccc3c21`, the melting point is 151 °C.
For the compound `O=C(N[C@H]1CC[C@H](CCN2CCN(c3nccc4c3CCO4)CC2)CC1)c1ccnc2ccccc12`, the melting point is 210 °C.
With `ClCc1cnc(Cl)cc1Cl` the figure was 55 to 56 °C; with `CCCSC(C(N)=O)c1cc(C)cc(C(=O)c2ccc(F)cc2)c1N` (stereo not drawn), 130 to 132 °C; with `CCN(CC)Cc1csc(N)c1C(=O)c1ccc(Cl)cc1`, 78 to 80 °C.
The compound `CC1(C)CCC(C)(C)c2cc(C(O)C#Cc3ccc(C(=O)O)c(O)c3)ccc21` (stereo not drawn) displayed a melting point of 203 to 204 °C.
With `CCCCCOc1ccc(Cn2c(C)nc(Cl)c2COC(=O)NS(=O)(=O)c2ccc(C)cc2)c(Cl)c1` the figure was 109 to 111 °C; with `CO/C=C(\Oc1cc(C#C[Si](C)(C)C)ccc1C)C(=O)OC`, 125 °C.
`O=C(NCCO)NC1CCCc2ccccc21` (stereo not drawn) had a melting point of 146 to 149 °C.
With `CC(Br)=C(c1ccc(N(C)C)cc1)c1ccc(N(C)C)cc1` the figure was 119 to 122 °C; with `CC(=O)c1cnc([N+](=O)[O-])n1C`, 81 to 83 °C.
The compound `COc1cc(CN2CCc3cc(O)c(OC)cc3C2)cc(OC)c1` yielded a melting point of 127 to 128 °C.
In turn, `CCC(C)Cc1ccc(C(=O)O)cc1Br` (stereo not drawn) registered a melting point of 78.8 to 79.7 °C.
`O=C(NCCCOc1ccc(-n2ccnc2)cc1)c1ccc(Br)cc1`: the melting point was 183 to 185 °C.
`CCOP(=O)(CC(=O)Nc1cc2c(Nc3ccc(Cl)c(Cl)c3)ncnc2cn1)OCC` came in with a melting point of 121 to 124 °C.
As to `COC(=O)c1ccc2ncc(C(=S)NCc3ccc(Cl)cc3)c(O)c2c1`, the melting point was in the range of 259 to 261 °C.
Take `O=C(Nc1ccc(C(F)(F)F)cc1)C1=NN(c2ccc(Cl)cc2)C(c2ccco2)C1` (stereo not drawn): the melting point was 167 to 171 °C.
For `CC(=O)Oc1ccc(-c2c(C)c3ccc(OC(C)=O)cc3oc2=O)c(OC(C)=O)c1` the value was 145 °C.
With `c1ccc(-n2c(Cn3ccnc3)nc3cccnc32)cc1` the figure was 146 to 148 °C; with `COC(=O)C1=C(C)NC(C)=C(C(=O)OCCCCCCCCCCCN2C(=O)c3ccccc3C2=O)C1c1cccc([N+](=O)[O-])c1` (stereo not drawn), 130 to 132 °C.
With `CCCCCCCCSc1nc(NCC(C)(C)c2cc(C(C)(C)C)c(O)c(C(C)(C)C)c2)nc(NC2CC(C)(C)NC(C)(C)C2)n1` the figure was 130 °C; with `CC(=O)Oc1ccc(-n2cc(C(=O)O)c(=O)cc2-c2ccc(N(C)C)cc2)cc1`, 128 to 131 °C; with `CC(=O)OCC1OC(n2nnnc2Cl)C(OC(C)=O)C(OC(C)=O)C1OC(C)=O` (stereo not drawn), 172 °C.
In turn, `CC(C)(C)OC(=O)N1CCc2snc(O)c2C1` displayed a melting point of 174 to 177 °C.
For `O=C1CO[C@@H]2c3ccccc3OCC[C@H]2N1` (relative stereo) the value was 246 to 248 °C; for `CC(C)S(=O)(=O)c1ccc(S(=O)(=O)C(C)C)nc1`, 181 °C.
For `CCCCCCCCCCCCCCCCOc1c2ncnc(SCC(=O)OCCCC)c2nn1C` the value was 64 to 67 °C.
With `O=C1C=C(c2c[nH]c3ccc(Br)cc23)C(=O)N1` the figure was 268 °C.
The compound `CCOCc1nc2c(N)nc3cc(CCC(=O)N4CCOCC4)ccc3c2n1CC(C)(C)O` returned a melting point of 118 to 119 °C.
`CC(C)c1cc(C(=O)NCc2ccccc2)c(N)s1` showed a melting point of 170 to 172 °C.
For `Cc1cc2c(c(C)c1[N+](=O)[O-])OCO2` the value was 75 to 76 °C; for `CC(C)NC(=O)NOCc1nc2c(N)nc3ccccc3c2n1CC(C)(C)O`, 231 to 233 °C; for `CS(=O)(=O)OCCOc1cc([N+](=O)[O-])ccc1N`, 132 to 135 °C.
With `CCOC(=O)C1CCC(=C(C#N)C(=O)c2ccc(Cl)cc2)N1` (stereo not drawn) the figure was 108 to 110 °C; with `CON=Cc1cc(=O)c(OCc2ccccc2)c(C(=O)c2ccc(Cc3ccc(F)cc3)o2)o1`, 116 to 117 °C.
With `COc1ccc(-c2cc3ccc(OC)cc3c(=S)[nH]2)cc1`, the melting point was in the range of 188 to 190 °C.
For `N#CC1=C(c2c[nH]c3ccccc23)Nc2n[nH]cc2C1c1cccc2nonc12` (stereo not drawn) the value was 238 °C.
With `CN(CCCN=C(NC#N)c1cc(C(C)(C)C)c(O)c(C(C)(C)C)c1)CCOc1ccc2c(c1)OCO2` the figure was 129 to 130 °C.
For `CC(C)OCCCNC(=O)CN1C(=O)C2(COc3cc4c(cc32)CCO4)c2ccccc21` (stereo not drawn) the value was 149 to 151 °C; for `O=C(O)C=Cc1ccc2ccccc2c1`, 207 to 208 °C.
Regarding `O=C(O)c1ccc(OCCNC(=O)C2Cc3ccccc3N2S(=O)(=O)c2ccc(-c3ccc(F)cc3Cl)cc2)cc1` (stereo not drawn), the melting point was 90 °C.
For `O=C(Nc1cccc2c1C(=O)c1c-2n[nH]c1-c1ccc(C(=O)[C@]23CN[C@H](CN2)C3)s1)NN1CCOCC1` the value was above 300 °C; for `Cn1c(COc2ccc(CC3SC(=O)NC3=O)cc2)cc2cccnc21` (stereo not drawn), 183 to 185 °C.
Consider `C[C@@H](n1cnc2cc(Cl)ccc2c1=O)[C@](O)(Cn1cncn1)c1ccc(Cl)cc1Cl`, for which the melting point was 144 to 146 °C.
With `CC1(c2ccc(Br)cc2)Cc2cc(O)c(Cl)c(Cl)c2C1=O` (stereo not drawn) the figure was 221 to 223 °C.
Regarding `O=C1SCC(O)=C1Cc1ccc2ccccc2c1`, the melting point was 238 to 239 °C.
With `CC=Cc1cccc(Oc2ccccc2Cl)c1OC` the figure was 61 to 62 °C.
With `O=c1c2c[nH]c3ccccc3c-2nn1-c1ncccn1` the figure was above 360 °C; with `CCCn1cc(Cc2ccc(C(=O)NS(=O)(=O)c3ccccc3C)cc2OC)c2cc(CCC(C)C(=O)N(C)C)ccc21` (stereo not drawn), 90 to 93 °C; with `COC(=O)c1ccc(Cl)cc1NC(=O)CSc1cccc(OC)c1`, 72 to 73 °C.
With `CCSc1cc2ncc(C#N)c(Nc3cc(OC)c(Cl)cc3Cl)c2cc1OC` the figure was 212 to 214 °C.
As for `COc1cc(CN/C=C2\C(=O)NC(=O)c3ccc(Br)cc32)ccc1O`, the melting point was in the range of 260 to 261 °C.
For `COC(=O)CC(=O)C[C@H]1NC(=O)[C@@H]1N1C(=O)c2ccccc2C1=O` the value was 116 to 120 °C; for `CCCCn1c(=O)c2nn(S(=O)(=O)c3cccc(C(F)(F)F)c3)cc2n(CCCC)c1=O`, 163 to 165 °C.
For `Cc1noc(NC(=O)NCCC2CCN(Cc3ccccc3)CC2)n1` the value was 138 to 139 °C; for `CCOC(=O)CCc1c[nH]c2ccc([N+](=O)[O-])cc12`, 118 to 121 °C; for `COC(=O)CCC#Cc1ccc(C(F)(F)F)cc1N`, 42 °C.
With `O=Cc1c(O)cccc1OCCCCC(=O)O` the figure was 94 °C.
`Cc1nccn1-c1ccc(Sc2cccc(C3(C(N)=O)CCOCC3)c2)cc1` registered a melting point of 184 to 185 °C.

For the origin of these results see a melting point compilation (Tetko et al.; mined from patent text by program, amines drawn as free bases though some values may be those of a salt).
